Data: patent publication US8987209B2, “N-carboxyalkyl-auristatin and the use thereof” (Seattle Genetics, Inc., priority 2010, dated 2015)
Square brackets hold non-standard residues; d marks the D form. Peptide text beside a SMILES is read from it. * marks the point of attachment. NMeVal(N-(CH2)3COOH) = CC(C)[C@@H](C(=O)*)N(C)CCCC(=O)O; Dolaproine = CO[C@@H]([C@@H]1CCCN1)[C@@H](C)C(=O)O; Dil = CC[C@H](C)[C@H](NC)[C@@H](CC(=O)O)OC; X3 = CC(C)[C@@H](C(=O)*)N(C)CCCCCC(=O)O; X4 = C1C2CC3CC1CC(CO*)(C2)C3; X6 = C1C2CC3CC1CC(O*)(C2)C3; X2 = c1ccc2c(CO*)cccc2c1; NHBn = c1ccc(CN*)cc1; OBn = c1ccc(CO*)cc1; OtBu = CC(C)(C)O*

Columns and labels:
[1] = system: HT-29 wt cell line; experiment: Anti-proliferative effect on HT-29 wt cell line (MTT assay); format: cell-based, human; details: Homo sapiens, HT-29 wt cells, incubation 48 to 96 hours, medium with 10% FCS
Method: B-2. Determination of Anti-proliferative Effects of HT-29 wt Cell Line:
After 18 hours the seed medium was replaced by a fresh medium with 10% FCS. The treatment started with measuring out the respective test substance. The dose-response curves were determined of the investigative substances with a concentration of 10^−5 M to 10^−14 M (1:10 dilutions). Incubation times of between 48 hours and 96 hours were chosen. The proliferation was detected by means of the MTT assay (ATCC, Manassas, Va., USA, catalogue no. 30-1010K). After completion of selected incubation period the MTT reagent was incubated with the cells for 4 hours before lysis occurred over night by measuring out the detergent. The created stain was detected at 570 nm. The proliferation of the cells, which were treated identically to the other cells but without the test substance, was defined as the 100% value. The data obtained from this test represent triple determinations and at least two experiments had been carried out independently of each other.

[2] = system: human renal carcinoma cell line 786-0; experiment: Anti-proliferative effect on renal cell carcinoma 786-0 cell line (MTT assay); format: cell-based; details: Homo sapiens, 786-0 cells, incubation 48 to 96 hours, serum free medium or 2% FCS
Method: B-1. Determination of Anti-proliferative Effects of Renal Cell Carcinoma 786-0 Cell Line:
A defined number of cells of the human renal carcinoma cell line 786-0 were cultured in a 96 well micro titer plate in rich medium (2500 or 7.000 cells/well) and then incubated over night at 37° C./5% CO2. After 18 hours the seed medium was replaced by a serum free medium or medium with 2% FCS. The treatment began with measuring out the respective test substances in varying concentrations (10^−5 M to 10^−14 M). Incubation times of between 48 hours and 96 hours were chosen. The proliferation was determined by means of the MTT assay (ATCC, Manassas, Va., USA, catalogue no. 30-1010K). After completion of incubation period the MTT reagent was incubated with the cells for 4 hours before lysis occurred over night by measuring out the detergent. The created stain was detected at 570 nm. The proliferation of the cells, which were treated identically to the other cells but without the test substance was defined as the 100% value. The data obtained from this test represent triple determinations and at least two experiments had been carried out independently of each other.

| Structure (SMILES) | IC50 [1] | IC50 [2] |
| --- | --- | --- |
| CC[C@H](C)[C@@H]([C@@H](CC(=O)N1CCC[C@H]1[C@H](OC)[C@@H](C)C(=O)N[C@@H](Cc1ccccc1)C(=O)OCc1cccc2ccccc12)OC)N(C)C(=O)[C@@H](NC(=O)[C@H](C(C)C)N(C)CCCC(=O)O)C(C)C [Example 1, N-(3-carboxypropyl)-N-methyl-L-valyl-N-[(3R,4S,5S)-3-methoxy-1-{(2S)-2-[(1R,2R)-1-methoxy-2-methyl-3-{[(2S)-1-(1-naphthylmethoxy)-1-oxo-3-phenylpropane-2-yl]amino}-3-oxopropyl]pyrrolidin-1-yl}-5-methyl-1-oxoheptan-4-yl]-N-methyl-L-valinamide] ({NMeVal(N-(CH2)3COOH)}-V[Dil][Dolaproine]F-X2) | 0.1 nM | 1.1 nM |
| CC[C@H](C)[C@@H]([C@@H](CC(=O)N1CCC[C@H]1[C@H](OC)[C@@H](C)C(=O)N[C@@H](Cc1ccccc1)C(=O)OC12CC3CC(CC(C3)C1)C2)OC)N(C)C(=O)[C@@H](NC(=O)[C@H](C(C)C)N(C)CCCC(=O)O)C(C)C [Example 2, N-(3-carboxypropyl)-N-methyl-L-valyl-N-[(3R,4S,5S)-1-{(2S)-2-[(1R,2R)-3-{[(2S)-1-(adamantane-1-yloxyy)-1-oxo-3-phenylpropane-2-yl]amino}-1-methoxy-2-methyl-3-oxopropyl]pyrrolidin-1-yl}-3-methoxy-5-methyl-1-oxoheptan-4-yl]-N-methyl-L-valinamide] ({NMeVal(N-(CH2)3COOH)}-V[Dil][Dolaproine]F-X6) | – | 2.2 nM |
| CC[C@H](C)[C@@H]([C@@H](CC(=O)N1CCC[C@H]1[C@H](OC)[C@@H](C)C(=O)N[C@@H](Cc1ccccc1)C(=O)OCC12CC3CC(CC(C3)C1)C2)OC)N(C)C(=O)[C@@H](NC(=O)[C@H](C(C)C)N(C)CCCC(=O)O)C(C)C [Example 3, N-(3-carboxypropyl)-N-methyl-L-valyl-N-[(3R,4S,5S)-1-{(2S)-2-[(1R,2R)-3-{[(2S)-1-(adamantane-1-ylmethoxy)-1-oxo-3-phenylpropane-2-yl]amino}-1-methoxy-2-methyl-3-oxopropyl]pyrrolidin-1-yl}-3-methoxy-5-methyl-1-oxoheptan-4-yl]-N-methyl-L-valinamide] ({NMeVal(N-(CH2)3COOH)}-V[Dil][Dolaproine]F-X4) | – | 0.7 nM |
| CC[C@H](C)[C@@H]([C@@H](CC(=O)N1CCC[C@H]1[C@H](OC)[C@@H](C)C(=O)N[C@H](COCc1ccccc1)Cc1ccccc1)OC)N(C)C(=O)[C@@H](NC(=O)[C@H](C(C)C)N(C)CCCC(=O)O)C(C)C [Example 4, N-(3-carboxypropyl)-N-methyl-L-valyl-N-[(3R,4S,5S)-1-{(2S)-2-[(1R,2R)-3-{[(2S)-1-(benzyloxy)-3-phenylpropane-2-yl]amino}-1-methoxy-2-methyl-3-oxopropyl]pyrrolidin-1-yl}-3-methoxy-5-methyl-1-oxoheptan-4-yl]-N-methyl-L-valinamide] | 0.1 nM | 0.8 nM |
| CC[C@H](C)[C@@H]([C@@H](CC(=O)N1CCC[C@H]1[C@H](OC)[C@@H](C)C(=O)N[C@@H](Cc1ccccc1)C(=O)OCc1ccccc1)OC)N(C)C(=O)[C@@H](NC(=O)[C@H](C(C)C)N(C)CCCC(=O)O)C(C)C [Example 5, N-(3-carboxypropyl)-N-methyl-L-valyl-N-[(3R,4S,5S)-1-{(2S)-2-[(1R,2R)-3-{[(2S)-1-(benzyloxy)-1-oxo-3-phenylpropan-2-yl]amino}-1-methoxy-2-methyl-3-oxopropyl]pyrrolidin-1-yl}-3-methoxy-5-methyl-1-oxoheptan-4-yl]-N-methyl-L-valinamide] ({NMeVal(N-(CH2)3COOH)}-V[Dil][Dolaproine]F-OBn) | – | 0.2 nM |
| CC[C@H](C)[C@@H]([C@@H](CC(=O)N1CCC[C@H]1[C@H](OC)[C@@H](C)C(=O)N[C@H](C(=O)OCc1ccccc1)[C@@H](C)c1ccccc1)OC)N(C)C(=O)[C@@H](NC(=O)[C@H](C(C)C)N(C)CCCC(=O)O)C(C)C [Example 6, N-(3-carboxypropyl)-N-methyl-L-valyl-N-[(3R,4S,5S)-1-{(2S)-2-[(1R,2R)-3-{[(2S,3S)-1-(benzyloxy)-1-oxo-3-phenylbutane-2-yl]amino}-1-methoxy-2-methyl-3-oxopropyl]pyrrolidin-1-yl}-3-methoxy-5-methyl-1-oxoheptan-4-yl]-N-methyl-L-valinamide] | 0.4 nM | 1.1 nM |
| CC[C@H](C)[C@@H]([C@@H](CC(=O)N1CCC[C@H]1[C@H](OC)[C@@H](C)C(=O)N[C@@]1(C(=O)OCc2ccccc2)C[C@@H]1c1ccccc1)OC)N(C)C(=O)[C@@H](NC(=O)[C@H](C(C)C)N(C)CCCC(=O)O)C(C)C [Example 10, N-(3-carboxypropyl)-N-methyl-L-valyl-N-[(3R,4S,5S)-1-{(2S)-2-[(1R,2R)-3-({(1S,2R)-1-[(benzyloxy)carbonyl]-2-phenylcyclopropyl}amino)-1-methoxy-2-methyl-3-oxopropyl]pyrrolidin-1-yl}-3-methoxy-5-methyl-1-oxoheptan-4-yl]-N-methyl-L-valinamide] | – | 81 nM |
| CC[C@H](C)[C@@H]([C@@H](CC(=O)N1CCC[C@H]1[C@H](OC)[C@@H](C)C(=O)N[C@@H](Cc1ccccc1)C(=O)NCc1ccccc1)OC)N(C)C(=O)[C@@H](NC(=O)[C@H](C(C)C)N(C)CCCC(=O)O)C(C)C [Example 15, N-(3-carboxypropyl)-N-methyl-L-valyl-N-[(3R,4S,5S)-1-{(2S)-2-[(1R,2R)-3-{[(2S)-1-(benzylamino)-1-oxo-3-phenylpropan-2-yl]amino}-1-methoxy-2-methyl-3-oxopropyl]pyrrolidin-1-yl}-3-methoxy-5-methyl-1-oxoheptan-4-yl]-N-methyl-L-valinamide] ({NMeVal(N-(CH2)3COOH)}-V[Dil][Dolaproine]F-NHBn) | – | 0.9 nM |
| CC[C@H](C)[C@@H]([C@@H](CC(=O)N1CCC[C@H]1[C@H](OC)[C@@H](C)C(=O)N[C@@H](Cc1ccccc1)C(=O)OC(C)(C)C)OC)N(C)C(=O)[C@@H](NC(=O)[C@H](C(C)C)N(C)CCCC(=O)O)C(C)C [Example 20, N-(3-carboxypropyl)-N-methyl-L-valyl-N-[(3R,4S,5S)-1-{(2S)-2-[(1R,2R)-3-{[(2S)-1-tert.-butoxy-1-oxo-3-phenylpropane2-yl]amino}-1-methoxy-2-methyl-3-oxopropyl]pyrrolidin-1-yl}-3-methoxy-5-methyl-1-oxoheptan-4-yl]-N-methyl-L-valinamide] ({NMeVal(N-(CH2)3COOH)}-V[Dil][Dolaproine]F-OtBu) | – | 0.3 nM |
| CC[C@H](C)[C@@H]([C@@H](CC(=O)N1CCC[C@H]1[C@H](OC)[C@@H](C)C(=O)N[C@@H](Cc1c[nH]c2ccccc12)C(=O)NCc1ccccc1)OC)N(C)C(=O)[C@@H](NC(=O)[C@H](C(C)C)N(C)CCCCCC(=O)O)C(C)C [Example 28, N-(5-carboxypentyl)-N-methyl-L-valyl-N-[(3R,4S,5S)-1-{(2S)-2-[(1R,2R)-3-{[(2S)-1-(benzylamino)-3-(1H-indol-3-yl)-1-oxopropane-2-yl]amino}-1-methoxy-2-methyl-3-oxopropyl]pyrrolidin-1-yl}-3-methoxy-5-methyl-1-oxoheptan-4-yl]-N-methyl-L-valinamide] (X3-V[Dil][Dolaproine]W-NHBn) | 1.3 nM | – |
